Experimental data as given in patent publication US5214034A, “Catechol derivatives, and preventive and remedial preparations for regressive disorders in the central nervous system containing the same” (priority 1986, dated 1993).
Read-outs that look alike come from different tables or passages of the source.

Assays:
Acute toxicity (LD50) = details: mouse, in vivo
Protocol: The catechol derivative having normal type saturated lower alkyl groups on the ring was administered by intravenous injection (i.v.), intraperitoneal injection (i.p.) or oral route (p.o.) to male ddy mice of 4-week old. The LD50 values (mg/kg) were measured by an ordinary method.

NGF = NGF production in the central nervous system of normal rats by intraperitoneal injection (NGF content of brain tissue, ELISA); format: in vivo, rat (Wistar male); details: Table 7, i.p., three times every other day
Protocol: The derivative (A), e.g. R=Two H, R1 =H and R2 =n-propyl (hereinafter referred to as 4-n-propylcatechol), was administered to normal rats by intraperitoneal injection, and the effect was examined.
4-n-Propylcatechol was administered by intraperitoneal injection 4 times every other day in a dosage of 5 mg/kg. The rats were killed two days after the final administration. The NGF content of each parts in brain was measured. The content was compared with those of control group which was administered saline alone.
A variety of the derivative was administered three times every other day. The content of NGF in the forebrain after 48 hours and 7 days from the final administration was measured and illustrated in Table 7.
Wistar male rats (9-10-week old, 200-250 g of weight) were intraperitoneally injected with the test derivative in a volume of 0.5 ml as a saline solution, emulsion or suspension. Dose and administration times were the same as above. The rats were killed by a hard spinal blow two days after the final administration. Each parts of brain were dissected and subjected to the following treatment under ice cooling.
Each parts of brain were weighed and homogenized for 30 strokes by a Dounce type homogenizer in a homogenization buffer (0.1 M Tris-HCl, containing 2% bovine serum albumin fraction V, 2% gelatin, 1.0 M NaCl, 0.02% NaN3, 2 mM EDTA and 2.6 kiu/ml of aprotinin, pH 7.6) at a concentration of 10% (W/V) (only septum 5% (W/V)). Each homogenate was centrifuged at 100,000 xg for 10 minutes, and 50 μl of supernatant was added with the same amount of a dilution buffer (0.1 M Tris-HCl containing 2% bovine serum albumin fraction V, 0.05% NaN3 and 20 mM CaCl2, pH 7.6). Determination was conducted in accordance with a method of S. Furukawa et al. by using a high sensitivity ELISA system on 8-NGF which was described in J. Neurochem., 40, 734-744 (1983). Lower limit of determination is 0.25 pg/ml. Data are indicated as a mean value ±SE on the NGF content of tissue (pg/mg wet tissue) of five rats.

[1] = tested on: rats injected with kainic acid at basal forebrain / sham-operated rats; assay: Retention of passive avoidance learning: prevention of retention deficits; format: in vivo, rat (male Sprague-Dawley); details: Table 8, i.p. 5 mg/kg on days 1, 4, 7
Protocol: (§1) Effects of the derivative on the behavioral parameters of rats injected with kainic acid at basal forebrain were characterized with regard to both prevention against deficits in retention of passive avoidance learning and promotion of recovery from damaged state by repeated learning.
(§2) Male Sprague-Dawley rats (9-10 weeks of age, 200-250 g of weight) were anesthetized with Nembutal (50 mg/kg, i.p.) and placed in a stereotaxic apparatus. Bilateral lesions of the ventral globus pallidus were made by direct stereotaxic application (0.7 mm posterior to bregma, 2.7 mm lateral to the midline, and 7.0 mm ventral to the brain surface) of 0.25 μg of kainic acid in 1 μl of PBS (pH 7.4) to prepare disordered models. Controls were sham-operated rats injected with PBS in place of kainic acid solution.
(§3) Passive avoidance procedures were performed by using a two chambered step-through passive avoidance apparatus with a guillotine door. A 3 mA scrambled shock was delivered to the dark floor grids for 3 seconds as a punishment. Habituation trial was conducted prior to the acquisition trial. Each rats were placed in the illuminated chamber and the guillotine door was raised after 10 seconds. As soon as the rats entered into the dark chamber, the door was lowered. The rats were removed after 10 seconds and returned to their home cages. […] The acquisition trial was performed similarly to the habituation trial. In the former case, a rat was placed in the illuminated room and the door was opened after 10 seconds. The door was shut immediately after the rat entered into the dark room, a scrambled foot shock was applied, and then the animal was removed. The latency to enter the dark chamber after opening the door was recorded for 300 seconds in the retention of passive avoidance. The latency exceeding 300 seconds was calculated as 300 seconds.
The preventive effects on deficits in retention were estimated by using 60 rats. Thirty rats were injected with kainic acid and other 30 rats were sham-operated with PBS.
Each groups of animals were equally divided into three groups which were received intraperitoneally 5 mg/kg of the derivative (A) (R=2H, R1 =H, R2 =n-propyl, that is, 4-n-propylcatechol), derivative A (R=--CO--, R1 =H, R2 =n-propyl) and saline respectively as a saline solution on one, four and seven days after the operation.
Table 8 illustrates the results obtained by conducting the acquisition trial 10 days after the operation and the retention test after 24 hours.

[2] = tested on: rats injected with kainic acid at basal forebrain; assay: Promotion of recovery from retention deficits by repeated learning (passive avoidance); format: in vivo, rat (male Sprague-Dawley); set-up: key: latency in seconds to enter dark chamber, capped at 300 s; details: Table 9, i.p. 5 mg/kg before each trial
Protocol: as §1, §2, §3
The promoting effects on the recovery by repeated training from the damaged state of retention were acessed by using 30 rats injected with kainic acid. Rats were subjected to the acquisition trial 10 days after the operation. The rats were equally divided into 3 groups after 24 hours and injected intrapenitroneally with 5 mg/kg of 4-n-propylcatechol and the derivative (A) (R=--CO--, R=H, R2 =n-propyl) respectively as a saline solution. The remaining 10 rats were intraperitoneally injected with saline alone. The first retention trial was carried out two days after the injection. Rats which entered into the dark chamber within 30 seconds were punished by the scrambled foot shock as a training. On the next day, all animals were administered again the same amount of test derivative or saline. These animals were subjected to the second retention trial two days after the second injection.
Retention trials, punishments and additional administrations were repeated as mentioned above four times in all.

**Q.** With CCCc1ccc2oc(=O)oc2c1 [R = --CO--, R1 = H, R2 = n-Propyl] as the compound, how does the LD50 (Acute toxicity (LD50); ip, intraperitoneal injection, read-out: LD50 i.p.) read?
**A.** > 1000 mg/kg

**Q.** What about the LD50 (Acute toxicity (LD50); intravenous injection, read-out: LD50 i.v.) of the same compound?
**A.** > 250 mg/kg

**Q.** What about the LD50 (Acute toxicity (LD50); oral route, read-out: LD50 p.o.) of the same compound?
**A.** > 2500 mg/kg

**Q.** And the “NGF content after 48 hr.” value (NGF; 48 hours after final administration)?
**A.** 1.66 ± 0.23 pg/mg wet tissue of frontal co

**Q.** And the “NGF content after 7 days” value (NGF; 7 days after final administration)?
**A.** 2.23 ± 0.39 pg/mg wet tissue of frontal co

**Q.** And the “Animals with more than 150 sec of latency” value ([1]; rats operated with kainic acid)?
**A.** 4 in 10 animals

**Q.** What about the Mean latency ([1]; rats operated with kainic acid, *P < 0.01 vs control) of the same compound?
**A.** 152 ± 29 s

**Q.** And the “Animals with more than 150 sec of latency” value ([1]; sham-operated rats)?
**A.** 10 in 10 animals

**Q.** What about the Mean latency ([1]; sham-operated rats) of the same compound?
**A.** 291 ± 7 s

**Q.** And the “Mean latency, 1st retention trial” value [2]?
**A.** 46 ± 13

**Q.** And the “Mean latency, 4th retention trial” value ([2]; **P < 0.01)?
**A.** 284 ± 15

**Q.** What about the “Mean latency, 2nd retention trial” value ([2]; *P < 0.05) of the same compound?
**A.** 167 ± 31

**Q.** What about the “Mean latency, 3rd retention trial” value ([2]; *P < 0.05) of the same compound?
**A.** 236 ± 28
